Legend:
U251 DR5-Luc cells = experiment: Cell based high throughput death receptor screen (DR5-Luc reporter bioluminescence); settings: compound at 100 nM, 24 h; positive control Tunicamycin 100 nM
Experimental: High throughput screening (HTS) was performed by the HTS core at the University of Pennsylvania. U251 DR5-Luc cells were plated at 2.0×10^3 cells/well across ten 384 well plates. Plates were then incubated in a humidified environment at 37° C. and 5% CO2 for twenty-four hours. Compound from the Selleckchem Bioactive Compound Library I was added to each well at 100 nM (approximately 3200 compounds). Tunicamycin (100 nM) and DMSO (0.1% v/v) served a positive and negative plate controls. Brite-Lite (PerkinElmer, Waltham, MA) reagent was added all plates twenty-four hours following the addition of compound, and plates were assayed on Envision Xcite (PerkinElmer) plate reader. The mean (μ) and standard deviation (σ) for each plate was used to transform total flux for each compound (xi) into z-scores using the formula z=(xi−μ/σ). Calculation of Z-prime for this screening assay was based upon the formula set forth by Zhang et al utilizing Tunicamycin and DMSO as a positive and negative controls respectively. Positive hits were identified as compounds that produced z-prime values greater than Tunicamycin. Reporter activity was validated following compound incubation and bioluminescence imaging on the IVIS spectrum (PerkinElmer).

NS039 = experiment: Compound dilution studies and cell viability (Cell Titer Glo); type: cell-based, human; settings: for IC50: NS039, 72 h
Experimental: (§1) Cells were plated at density of 7.5-1.0×10^4 cells/well in 96 well plates using their respective media. Plates were then incubated in a humidified environment at 37° C. and 5% CO2 for twenty-four hours. An eleven-point dilution series of positive hits from our HTS screen was added to each plate. Cells treated with 0.1% DMSO served as a vehicle control. Plates were incubated with compound for seventy-two hours at 37° C. and 5% CO2, followed by addition of Cell Titer Glo® (Promega). Bio-luminescent readings were obtained using a Synergy HT luminometer (BioTek, Winooski, VT). Raw bio-luminescent values were normalized to their vehicle treated controls, and then fit to a modified Hill Equation using OriginPro 8 (OriginLab, Northampton, MA) in order to calculate IC50 values. All dilution series experiments were performed as biological triplicates.

T4213 = experiment: as above; type: cell-based; settings: for IC50: T4213, 72 h
Experimental: as §1

[1] = Cargo loading efficiency of Se-PCPP hydrogel (UV-Vis / ICP-OES); type: physicochemical; settings: UV-vis spectroscopy
Experimental: Se-PCPP hydrogel: A mixture of 1 mL PCPP (4 mg·mL^−1, PBS) and 10.3 mg Na2HPO4 were mixed together and pH was adjusted to 7.4 by addition of HCl (1 M). Next, 1.4 μL of selenocystamine dihydrochloride (110 mg·mL^−1, PBS) were added to the mixture and vortexed for 30 seconds. The mixture was dropping into 10 mL of a CaCl2 (8.8%, DI H2O) and left to react under vigorous stirring for 20 minutes at room temperature. Finally, the solution was transferred to conical tubes and centrifuged at 2 k rpm for 8 min. The supernatant was discarded, and the pellet was re-suspended in DI water. After repeating this process three times, the Se-PCPP solution was re-suspended in DI water, vortexed at 14 k rpm and stored at 4° C. The final concentration of […] in the sample was determined using ICP-OES performed on a Spectro Genesis ICP.
Cargo loaded Se-PCPP hydrogel: For the cargo loaded Se-PCPP hydrogel, the PCPP (4 mg/mL, PBS) solution was mixed with the desired amount of cargo (solutions of doxorubicin, FITC-BSA or quisinostat at 1 mg/mL) and 10.3 mg Na2HPO4. The total volume was completed to 2 mL with PBS, pH was adjusted to 7.4 by addition of HCl (1 M) and incubated for 10 minutes before cross-linking with selenocystamine dihydrochloride as described above. The final drug concentration in the sample were determined using UV-Vis spectroscopy by determining the loading efficiency (LE), calculated as follows: % LE=([stock drug]−[non-loaded drug]/[stock drug])*100.

T4213 orthotopic tumor = experiment: Orthotopic tumor implantation and treatment with Quisinostat; type: in vivo, athymic nude mice
Description: T4213 cells were stably modified using a lentiviral vector containing GFP and Luciferase (Biosettia, San Diego, CA). Cells were resuspended in serum free media, and then 3.0×10^5 cells were stereotactically injected into the right striatum of five-week female athymic nude mice (Charles River Labs). Tumor bioluminescence was quantified on the IVIS spectrum (PerkinElmer, Hopkinton, MA) following intraperitoneal administration of D-Luciferin (Goldbio, St Louis MO) two days following cell implantation. In a separate experiment, mice underwent serial bioluminescent imaging following orthotopic T4213 implantation. Mice were assigned to different treatment groups such that the total flux (photons/s) was equivalent between groups (6.4×10^6 photons/s). Treatment was initiated immediately following bioluminescent imaging, and consisted of once daily intraperitoneal administration of 2-Hydroxypropyl-β-cyclodextrin (vehicle, Cayman Chemical, Ann Arbor MI) or 10 mg/kg Quisinostat (Cayman Chemical) for a total of eight doses (FIG. 5A). […] Bioluminescent imaging was repeated seventy-two hours after the last treatment was administered. […] Serial bioluminescence was assessed using a one-way repeated measures ANOVA followed by a post-hoc Tukey test. Post-treatment total flux was background corrected, and the percent change in total flux was analyzed using a Mann-Whitney U test. […]

CHOP and DR5 = experiment: Western blot analysis of CHOP and DR5; type: cell-based
Experimental: Western blot analysis was performed using standard techniques as understood in the art, including those described at least by S. Sheikh et. al., Mol. Cancer Res. 2019, 17 (5), 1102-1114.

[2] = system: Patient-derived glioblastoma organoids (GBOs); experiment: Brain tumor organoids, compound incubation, viability and immunofluorescence; type: cell-based, human; settings: 1.0 μM
Experimental: Glioblastoma organoids (GBOs) were generated from primary brain tumor as previously described.3 Briefly, primary brain tumor specimens were minced into approximately 1 mm pieces following clinical confirmation of pathologic diagnosis and incubated in GBO medium containing 50% DMEM:F12 (Thermo Fisher Scientific), 50% Neurobasal (Thermo Fisher Scientific), 1× GlutaMax (Thermo Fisher Scientific), 1× NEAAs (Thermo Fisher Scientific), 1× PenStrep (Thermo Fisher Scientific), 1× N2 supplement (Thermo Fisher Scientific), 1× B27 w/o vitamin A supplement (Thermo Fisher Scientific), 1× 2-mercaptoethanol (Thermo Fisher Scientific), and […] human insulin (Sigma) per well and placed on an orbital shaker rotating at 120 rpm within a 37° C., 5% CO2, and 90% humidity sterile incubator. Organoids would generally form 2-4 weeks following initial culturing. Organoids were then incubated in GBO containing media containing either DMSO (0.1%) or 1.0 μM quisinostat with media changes every two days for seven days total. Post-treatment images were taken on brightfield microscope and samples were subsequently fixed in 4% paraformaldehyde×30 minutes for immunofluorescence analysis.
Serial tissue sections (20 μm) were sliced using a cryostat (Leica, CM3050S), and melted onto charged slides (Thermo Fisher Scientific). Slides were dried at room temperature and stored at −20° C. until ready for immunohistology. For immunofluorescence staining, the tissue sections were outlined with a hydrophobic pen (Vector Laboratories) and washed with TBS containing 0.1% Tween-20 (v/v). Non-specific binding was blocked using a solution containing 10% donkey serum (v/v), 0.5% Triton X-100 (v/v), 1% BSA (w/v), 0.1% gelatin (w/v), and 22.52 mg/ml glycine in TBST for 1 hour at room temperature. […]
GBOs were imaged on a Zeiss LSM 710 confocal microscope (Zeiss) using a 20× objective with Zen 2 software (Zeiss). Images were quantified and analyzed using ImageJ software. […]

T4213 and NS039 cells = experiment: Sphere formation assay; type: cell-based; settings: 1.0 μM
Experimental: T4213 and NS039 cells were plated at 2000 cells/well in six well plates in the presence of 0.1% DMSO or 1.0 μM Quisinostat in biological triplicate for twelve days. On day twelve, individual wells were imaged on a Lionheart Fx microscope at 4× magnification following addition of NucBlue™ (Hoechst 33342, Invitrogen). Circular blue objects greater than 50 μm in diameter and less than […] were counted as neurospheres. Differences in sphere formation between cells and treatments were assessed using a one-way ANOVA followed by post-hoc Tukey's test in GraphPad Prism 8. P-values less than 0.05 were considered significant.

[3] = Hydrogel degradation and cargo release after X-ray irradiation; type: physicochemical
Experimental: X-ray irradiation The radiation dose delivered to the sample is quantified in gray (Gy) with the relation of 1 Gy=1 J/kg. The X-ray irradiation was performed on an X-RAD 320ix irradiator (PXi, North Branford, CT) operated at 320 kV, 12.5 mA, focal spot of 8 mm^2 and with an aluminum filter of 2 mm delivering a dosage rate of 2.65 Gy/minute. In brief, the Se-PCPP hydrogel was sampled into 1 mL tube and placed in the irradiator chamber for the desired time depending onto the X-ray dose to be delivered.
Se-PCPP hydrogel ([Au]=0.2 mg/mL) was suspended into 1 mL of freshly prepared PBS/10 FBS in micro-centrifuge tubes and centrifuged at 4 k rpm for 8 minutes. Samples were irradiated with the desired X-ray dose and incubated at 37° C. for the overall experiment time. At the desired time point, samples were vortexed, centrifuged at 4000 rpm for 8 minutes and the supernatant was gently collected for quantification of the released cargo by ICP-OES or UV-vis spectroscopy. 1 mL of freshly prepared incubation medium was rapidly added to each sample, all were incubated at 37° C. until the next time point.

Row | Compound | bioluminescent signal in cell-based death receptor assay (U251 DR5-Luc cells) | IC50 (NS039) | IC50 (T4213) | loading efficiency in Se-PCPP hydrogel [1] [%] | further results
1 | O=C(/C=C/c1ccc(CN(CCO)CCc2c[nH]c3ccccc23)cc1)NO [Dacinostat] | greater than our positive control Tunicamycin | – | – | – | –
2 | COc1ccc(-c2nc(N3CCOCC3)c3sc(CN(C)c4ncc(C(=O)NO)cn4)cc3n2)cn1 [CUDC-907] | greater than our positive control Tunicamycin | single digit nanomolar | single digit nanomolar | – | –
3 | COc1cccc2c1C(=O)c1c(O)c3c(c(O)c1C2=O)C[C@@](O)(C(=O)CO)C[C@@H]3O[C@H]1C[C@H](N)[C@H](O)[C@H](C)O1 [doxorubicin] | – | – | – | 74 | –
4 | CCS(=O)(=O)Nc1ccc(Oc2ccc(F)cc2F)c(-c2cn(C)c(=O)c3[nH]ccc23)c1 [ABBV-075] | greater than our positive control Tunicamycin | – | – | – | –
5 | Cn1cc(CNCC2CCN(c3ncc(C(=O)NO)cn3)CC2)c2ccccc21 [Quisinostat] | greater than our positive control Tunicamycin | single digit nanomolar | single digit nanomolar | 81 | tumor bioluminescence (T4213 orthotopic tumor; 10 mg/kg once daily intraperitoneal with breaks, seventy-two hours after last treatment): significant reduction; mouse body weight (T4213 orthotopic tumor; systemic administration): reduction of mouse body weight; CHOP dependent DR5 expression (CHOP and DR5): at nanomolar concentrations; Caspase staining ([2]; five distinct GBO lines): increased; Ki67 staining ([2]; five distinct GBO lines): decreased; organoid size ([2]; seven days): noticeably shrink; therapeutic window (ratio of IC50s between NHA and NS039) (NS039; normal human astrocytes vs NS039): favorable therapeutic window; cell morphology, sphere formation and integrity (T4213 and NS039 cells; Hoechst staining): shrunken and fragmented cell morphology; neurosphere formation (T4213 and NS039 cells; twelve days, control 120-130 neurospheres per well, p<0.05): 4-27 neurospheres per well; therapeutic window (ratio of IC50s between NHA and T4213) (T4213; normal human astrocytes vs T4213): favorable therapeutic window
6 | FITC-BSA | – | – | – | 91 | delivery profile from Se-PCPP hydrogel [3]: slower than both quisinostat and doxorubicin

— patent US12486401B2, “‘Smart’ hydrogel for the radiosensitization and sustained delivery of therapeutics triggered by irradiation” (The Trustees of the University of Pennsylvania, priority 2019, dated 2025)
